From publication PMC12400309 (RSC Advances, 2025)

What was measured:
[1] = test system: human gastric adenocarcinoma (SCM-1); test: MTT cytotoxicity assay, SCM-1; format: cell-based; conditions: read-out: IC50 SCM-1
[2] = test system: human oral squamous cell carcinoma (SCC2095); test: MTT cytotoxicity assay, SCC2095; format: cell-based; conditions: read-out: IC50 SCC2095
[3] = test system: human breast adenocarcinoma (MCF-7); test: MTT cytotoxicity assay, MCF-7; format: cell-based; conditions: MCF7, read-out: IC50 MCF-7
[4] = test system: human leukemia MOLT-4 cell line; conditions: cited from earlier work
[5] = test system: colchicine resistant KB-C2 cell lines; conditions: cited from earlier work

| Compound | IC50 [1] [µM] | IC50 [2] [µM] | other results |
| --- | --- | --- | --- |
| CC[C@H](CC[C@@H](C)[C@H]1CC[C@H]2[C@@H]3[C@H](O)C=C4C[C@@H](O)CC[C@]4(C)[C@H]3CC[C@]12C)C(C)C [Compound 8, (3β,7α)-stigmast-5-ene-3,7-diol] | > 30 | > 30 | IC50 [3]: > 30 µM |
| COc1cc(C=O)cc(OC)c1O [Compound 14, 4-hydroxy-3,5-dimethoxybenzaldehyde] | > 10 | > 10 | IC50 [3]: > 10 µM |
| COc1cc([C@@H]2c3cc4c(cc3[C@@H](O[C@@H]3O[C@@H]5CO[C@@H](C)O[C@H]5[C@H](O)[C@H]3O)[C@H]3COC(=O)[C@H]23)OCO4)cc(OC)c1O [Etoposide] |  | 2.5 ± 0.2 |  |
| CC(=O)O[C@H]1C(=O)[C@@]2(C)[C@H]([C@H](OC(=O)c3ccccc3)[C@]3(O)C[C@H](OC(=O)[C@H](O)[C@@H](NC(=O)c4ccccc4)c4ccccc4)C(C)=C1C3(C)C)[C@]1(OC(C)=O)CO[C@@H]1C[C@@H]2O [Paclitaxel] | 0.07 ± 0.002 |  |  |
| CC(=O)OC[C@H]1O[C@@H](O[C@@H]2C[C@H]3C(C)(C)[C@H](OC(C)=O)CC[C@]3(C)[C@H]3CC[C@]45C[C@]4(CC[C@H]5[C@@H](C)C[C@@H](O)[C@H](O)C(C)(C)O)[C@@]32C)[C@H](O)[C@@H](O)[C@@H]1O [cumingianoside A] |  |  | ED50 cytotoxicity MOLT-4 [4]: < 6.25 ng/mL |
| COC(C)(C)[C@@H](O)[C@H](O)C[C@H](C)[C@@H]1CC[C@]23C[C@]12CC[C@@H]1[C@@]2(C)CC[C@@H](OC(C)=O)C(C)(C)[C@@H]2C[C@@H](O[C@@H]2O[C@H](COC(C)=O)[C@@H](O)[C@H](O)[C@H]2O)[C@]13C [cumingianoside C] |  |  | ED50 cytotoxicity MOLT-4 [4]: < 4.5 ng/mL |
| cumingianol B |  |  | cytotoxicity against multi-drug resistant KB-C2 cancer cells (in words) [5]: enhanced cytotoxicity |
| dycusin A |  |  | cytotoxicity against multi-drug resistant KB-C2 cancer cells (in words) [5]: enhanced cytotoxicity |
